# Test results from patent US10765687B2, “Methods and compounds to inhibit enveloped virus release” (Northwestern University, priority 2012, dated 2020).
# Entries after “also recorded” stand apart in the source; their conditions may differ. No end group written: not given here.
# Key:
# TSG101 (SEQ ID NO:33) = biological target: T1, TSG101 (SEQ ID NO:33) (Homo sapiens, UniProt Q99816); assay: Fluorescence-based thermal shift (FTS) assay; format: binding; conditions: FIG. 7
# T1 construct: polyhistidine leader with thrombin cleavage site (pET28b) (N); TEV cleavage site (N); made in house
# T1 sequence (Q99816 with tags, fused parts or gaps): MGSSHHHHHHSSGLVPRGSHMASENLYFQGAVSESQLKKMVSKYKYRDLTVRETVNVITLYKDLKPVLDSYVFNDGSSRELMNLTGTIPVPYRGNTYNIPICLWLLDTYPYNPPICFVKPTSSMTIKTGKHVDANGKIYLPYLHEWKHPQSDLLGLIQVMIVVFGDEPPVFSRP
# Experimental: The fluorescence-based thermal shift assay is based on the observation that a protein unfolds upon heating, exposing the hydrophobic residues within its tertiary structure. The unfolding temperature (Tm) is determined by the protein's primary sequence and solution environment. The FTS assay uses a fluorescent dye sensitive to a hydrophobic environment to probe protein stability and its modulation by small molecule ligands. The dye has a low fluorescence quantum yield when in a polar environment. […] J Biomol Screen 6: 429-440; Lo M C, Aulabaugh A, Jin G, Cowling R, Bard J, et al. (2004) Evaluation of fluorescence-based thermal shift assays for hit identification in drug discovery. […]
# The NU-HTA has developed a robotic pipeline for small molecule protein ligand screening by FTS. See Luan C H, Light S H, Dunne S F, Anderson W F. Ligand screening using Fluorescence Thermal Shift Analysis (FTS). […] The pipeline uses an Echo550 acoustic transfer robot (Labcyte, CA) for compound addition and the Mosquito robot (TTP LabTechnologies, UK) for protein dispensing followed by thermal scanning coupled with fluorescence detection which is performed on a real-time PCR machine CFX384 (Bio-Rad Laboratories). […]
# Vero cells = assay: MTS cytotoxicity assay; conditions: 0 μM to 100 μM, uninfected cells, absorbance at 490 nm, FIG. 8B; listed as N16
# Experimental: The cytotoxicity of the compounds was determined by a commercially available assay (Celltiter 96® AQueous One Solution cell proliferation assay reagent; Promega, Madison, Wis.), as described previously (Akkarawongsa et al., 2006). The CellTiter 96® AQueous One Solution Cell Proliferation Assay is a colorimetric method for determining the number of viable cells in proliferation, cytotoxicity or chemosensitivity assays. The CellTiter 96® AQueous One Solution Reagent contains a tetrazolium compound [3-(4,5-dimethylthiazol-2-yl)-5-(3-carboxymethoxyphenyl)-2-(4-sulfophenyl)-2H-tetrazolium, inner salt; MTS] and an electron coupling reagent (phenazine ethosulfate; PES). PES has enhanced chemical stability, which allows it to be combined with MTS to form a stable solution. […] Assays are performed by adding a small amount of the CellTiter 96® AQueous One Solution Reagent directly to culture wells, incubating for 1-4 hours and then recording absorbance at 490 nm with a 96-well plate reader. The quantity of formazan product as measured by the amount of 490 nm absorbance is directly proportional to the number of living cells in culture.
# Briefly, Vero cells (1.5×10^4 cells/well) were seeded in a 96-well plate, and the plate was incubated for 24 h at 37° C. […] The plate was then incubated for 2 h at 37° C., and the absorbance at 490 nm was determined with a 96-well plate reader (Perkin Elmer).
# HSV-1 (strain F) = assay: HSV-1 virus production and release from infected Vero cells, plaque assay; format: cell-based; conditions: FIG. 8A
# Experimental: Vero cells were inoculated with HSV-1 (strain F) at a multiplicity of infection (MOI) of 0.01 for 2 hr. The cells were washed and treated with 0.10 M sodium citrate buffer to inactivate viruses on the outside of the cells (for example, in the culture medium). The culture medium was replaced with fresh culture medium containing no inhibitor compound or different concentrations (40 μM or 80 μM) of inhibitor compounds F15 or N16 (candidate PTAP motif inhibitors against the TSG101 peptide [SEQ ID NO:33]) for 48 hr. The supernatants (culture medium) and total cells (culture medium and cells) were collected for determining infectious virus titer. The virus titers were determined by standard plaque assay on Vero cells.
# Vero cells were grown in DMEM supplemented with 10% FBS. Viral infections were performed in DMEM supplemented with 1% heat-inactivated FBS. Vero cells were inoculated HSV-1 (strain F) at indicated concentrations, after 2 h, the cells were washed and treated with 0.1 M sodium citrate buffer (pH 3.0) for 1 min to inactivate unpenetrated viruses, washed again and incubated with fresh medium containing 1% heat-inactivated FBS. […] Then virus titers were determined by standard plaque assay on Vero cells.
# WWP2 (SEQ ID NO:24) [1] = biological target: T2, WWP2 (SEQ ID NO:24) (Homo sapiens, UniProt O00308); assay: Fluorescence polarization assay (FITC/TAMRA) for disruption of WWP2 binding to PY-motif peptide probe; conditions: SEQ ID NO: 17 probe with FITC or TAMRA label; read-out: [compound] to achieve 50% change in fluorescence polarization in FP Assay
# T2 construct: poly-His (pET28b leader with thrombin site) (N, cleaved yes); made in house; host or cells: E. coli BL21 DE3
# Experimental: (§1) Screens for compounds that disrupt the binding of the FTIC-peptide and WWP2 (SEQ ID NO:24) were carried out in 384-well plate format with 25 ml assay volume at ˜0.5 mM WWP2. Non-binding solid black plates (Corning Costar 3575) were used. The assay buffer contained 20 mM Tris and 150 mM NaCl at pH 7.9. FP was measured on either a Biotek Synergy4 or an Analyst GT plate reader. Data analysis was performed using the in-house software excelHTS. […] Each assay plate included 16 negative control wells containing protein-probe mix but no compounds and 16 wells containing only probe.
# WWP2 (SEQ ID NO:24) [2] = biological target: T2, WWP2 (SEQ ID NO:24); assay: Epic label-free binding assay of compounds to immobilized WWP2
# Experimental: Another preferred embodiment of an in vitro screening method is depicted in FIG. 3. In this method, the ability of the candidate compound 204 to directly interact with the cellular ESCRT-linked component protein (for example, Nedd4 family of polypeptides [for example, WWP1 (SEQ ID NO:29), WWP2 (SEQ ID NO:24), Nedd4 L, among others]) or TGS101 is evaluated. According to this embodiment, a cellular ESCRT component protein 202 is preferably immobilized to a substrate 201 (for example, a microtiter plate) via a linking group 203 (for example, an amine group). The substrate preferably includes an optional reference area that provides a control to prevent non-specific interactions with non-mobilized ESCRT complex protein 202 with substrate 201. The substrate 201 is washed and irradiated with broadband light so that a baseline refractive index is measured. Test compound 204 is added to the system to permit its binding to the immobilized ESCRT component protein 202 to form a resultant associative complex 205. The substrate 201 is irradiated with broadband light again to detect a change in the wavelength of the reflected light.
# High sensitivity biochemical plates (PerkinElmer Cat. No. 6057468) are used in WWP2 (SEQ ID NO:24) binding assay to maximize protein immobilization. […] Because compound stocks are in DMSO that affects the Epic label-free readout, the compound plates were prepared by Echo550 acoustic dispenser to keep DMSO content balanced for all wells. […]
# The binding of compounds to WWP2 (SEQ ID NO:24) was measured on the EnSpire label-free plate reader. After 25 minutes of thermal equilibration, a baseline reading was taken on the label-free plates with protein immobilized in assay buffer. […] The final reading was taken after 25 min of thermal equilibration and over a period of 60 minutes. The label-free responses were measured as shifts in reflected wavelength and were expressed in picometers (pm). Results were analyzed using the EnSpire label-free user interface software. […]
# [3] = biological target: T3, WWP2 polypeptide (SEQ ID NO:24) (Homo sapiens, UniProt O00308); assay: Fluorescence polarization WWP2 protein dose-response, binding of PY-motif peptide probes
# T3 construct: poly-His (pET28b leader with thrombin site) (N, cleaved yes); made in house; host or cells: E. coli BL21 DE3
# Experimental: as §1, with “Screens for compounds that disrupt the binding of the FTIC-peptide and WWP2 (SEQ ID NO:24) were carried out in 384-well plate format with 25 ml assay volume at ˜0.5 mM WWP2.” left out
# T2 sequence (O00308 with tags, fused parts or gaps): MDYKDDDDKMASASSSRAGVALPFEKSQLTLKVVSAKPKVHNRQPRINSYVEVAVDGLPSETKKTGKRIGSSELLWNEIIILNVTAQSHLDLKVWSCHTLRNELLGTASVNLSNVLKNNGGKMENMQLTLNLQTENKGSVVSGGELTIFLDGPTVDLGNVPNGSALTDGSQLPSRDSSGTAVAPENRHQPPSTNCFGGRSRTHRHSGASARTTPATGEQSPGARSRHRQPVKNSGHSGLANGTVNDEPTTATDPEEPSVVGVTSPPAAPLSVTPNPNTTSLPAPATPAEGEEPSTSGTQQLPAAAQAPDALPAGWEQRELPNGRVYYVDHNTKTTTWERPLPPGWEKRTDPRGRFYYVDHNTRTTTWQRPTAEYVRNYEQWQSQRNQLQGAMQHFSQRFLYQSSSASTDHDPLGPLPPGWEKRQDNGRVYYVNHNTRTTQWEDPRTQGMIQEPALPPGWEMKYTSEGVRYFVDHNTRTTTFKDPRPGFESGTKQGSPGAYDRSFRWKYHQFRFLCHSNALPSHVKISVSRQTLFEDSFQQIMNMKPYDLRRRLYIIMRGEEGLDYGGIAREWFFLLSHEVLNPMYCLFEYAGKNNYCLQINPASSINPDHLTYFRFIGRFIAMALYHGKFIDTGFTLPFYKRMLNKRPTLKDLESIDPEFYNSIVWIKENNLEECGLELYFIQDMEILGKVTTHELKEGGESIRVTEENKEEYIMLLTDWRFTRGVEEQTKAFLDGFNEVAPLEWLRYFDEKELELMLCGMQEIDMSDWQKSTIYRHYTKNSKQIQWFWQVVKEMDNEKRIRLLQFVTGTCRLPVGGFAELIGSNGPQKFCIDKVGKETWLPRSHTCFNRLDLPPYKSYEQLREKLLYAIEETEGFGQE
# T3 sequence (O00308 with tags, fused parts or gaps): as above
compound,measurement,setting,value
"COc1ccc2[nH]c([S+]([O-])Cc3ncc(C)c(OC)c3C)nc2n1 (racemic) [Tenatoprazole, (RS)-3-Methoxy-8-[(4-methoxy-3,5-dimethyl-pyridin-2-yl)methylsulfinyl]-2,7,9-triazabicyclo[4.3.0]nona-2,4,8,10-tetraene]",Thermal shift in protein unfolding (Tm) of TSG101,TSG101 (SEQ ID NO:33),lower Tm
same,Cytotoxic effects on Vero cells,Vero cells,Neither inhibitor compound was cytotoxic; also recorded: not toxic; also recorded: did not display cytotoxic effects
same,HSV-1 virion release from cells (in words),HSV-1 (strain F),inhibit HSV-1 virion release from cells
CCC(/C=C1\Sc2cc(Br)ccc2N1CC)=C\c1sc2cc(Br)ccc2[n+]1CC [CD23-G07],IC50,WWP2 (SEQ ID NO:24) [1],20 to 30 µM
"CC1=C(O)C(=O)C=C2C1=CC=C1[C@@]2(C)CC[C@@]2(C)[C@@H]3C[C@](C)(C(=O)O)CC[C@]3(C)CC[C@]12C [Celastrol, 3-Hydroxy-9β,13α-dimethyl-2-oxo-24,25,26-trinoroleana-1(10),3,5,7-tetraen-29-oic acid]",Kd,WWP2 (SEQ ID NO:24) [2],18.5 µM
"COc1ccc2[n-]c([S@@+]([O-])Cc3ncc(C)c(OC)c3C)nc2c1.[K+] [Esomeprazole potassium, 5-methoxy-2-[(R)-[(4-methoxy-3,5-dimethylpyridin-2-yl)methane]sulfinyl]-1H-1,3-benzodiazole, potassium]",HSV-1 virion release from cells (in words),HSV-1 (strain F),inhibit HSV-1 virion release from cells
O=C1c2ccccc2C(=O)c2c(NC3CCCCC3)ccc(Nc3ccc(S(=O)(=O)O)cc3)c21 [NSC128437],IC50,WWP2 (SEQ ID NO:24) [1],3 µM
Cc1nn(-c2ccc(S(=O)(=O)[O-])cc2)c([O-])c1N=Nc1ccc(-c2ccc(N=Nc3ccc4c(S(=O)(=O)[O-])cc(S(=O)(=O)[O-])c(N)c4c3[O-])c([O-])c2)cc1[O-].[Cu+2].[Cu+2].[H+].[H+].[H+] [NSC306711],IC50,WWP2 (SEQ ID NO:24) [1],1 µM
ATASAPPPYVGSGGGATASAPPPYVGSGGGATASAPPPYVGSGGGRRR [SEQ ID NO:17],Kd,[3],0.2 µM
